For 23 molecules, IC50, EC50 and CC50 results are on record in patent US20250084091A1, “INHIBITORS OF SARS-COV-2” (The Texas A&M University System, priority 2021, published 2025).

Values after ≈ are worked out from the molar mass of the structure shown. Like-named read-outs stand apart in the source and are kept apart here.

In data set [1] the target is SARS-CoV-2 main protease (Mpro) (Severe acute respiratory syndrome coronavirus 2, UniProt P0DTD1). Description: biochemical.
Data set [2] relates to SARS-CoV-2 (strain USA-WA1/2020). Nature of the data set: microbe, parasite or virus in culture. It counts as cell-based. The settings on record: SARS-CoV-2 infected HeLa-ACE2 cells.
A further data set concerns HeLa-ACE2 cells. Nature of the data set: cells. It counts as cell-based. The settings on record: Table 2, total cell count in infected plates.
Data set [3] is described as follows: Uninfected host cell cytotoxicity counter screen. Format: cell-based. Particulars: human. The method in brief:
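HeLa-ACE2 cells, uninfected, seeded at 400 cells/well with compounds and held 24 hours at 37° C., 5% CO2. Dead cells stained with Image-iT DEAD green, fixed in 4% paraformaldehyde, DAPI-counterstained and imaged. Data normalized to DMSO and 40 μM puromycin controls; concentration responses in triplicate.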
(The purpose of a counterscreen is to sort out artefacts and off-target activity.)

The test system of another data set is CoV-2 in Vero cells. Nature of the data set: CoV-2 Vero antiviral assay. Format: cell-based, SARS-CoV-2. Particulars: Severe acute respiratory syndrome coronavirus 2, Vero, read-out: CoV-2 Vero EC50/100.
Where [4] appears, read: Severe acute respiratory syndrome coronavirus 2, Table 2, read-out: CoV-2 HeLa EC50.
[5] abbreviates: Severe acute respiratory syndrome coronavirus 2, HeLa-ACE2, read-out: CoV-2 HeLa EC50, Table 2.
[6] abbreviates: Table 2, uninfected cells, 24 hours, read-out: Uninfected HeLa-ACE2 CC50.

As a reminder, the IC50 is the point on the concentration scale where inhibition reaches its midpoint. By CC50 is commonly meant the concentration at which the toxic effect on the cells reaches its halfway point. Consider `O=C(c1cncc(Br)c1)N1CCN(C2c3ccccc3CSc3ccccc32)CC1` (centres unmarked) [NZ-774, (5-bromo-3-pyridyl)-[4-(6,11-dihydrobenzo[c][1]benzothiepin-11-yl)piperazin-1-yl]methanone], for which, in data set [1] (Table 2, read-out: Enzyme IC50), the IC50 came to 0.13 µM. The figures for the EC50 (in data set [2] (setting [4]); with HeLa-ACE2 cells; in the data set on CoV-2 in Vero cells) were 0.63 µM, over 9.61 µM and 5 mg/L (≈ 10.4 µM), respectively. In data set [3], the CC50 at 24 h was over 39.8 µM.
In the same order, the values of `Cc1cncc(C(=O)N2CCC(=C(c3ccccc3)c3ccccc3)CC2)c1` [NZ-783, 3-[4-(diphenylmethylidene)piperidine-1-carbonyl]-5-methylpyridine] are 0.085 µM, 0.57 µM, over 9.61 µM, 10 mg/L (≈ 27.1 µM) and 25.6 µM.
In the same order, the values of `Cc1cncc(C(=O)N2CCN(C(c3ccccc3)c3ccccc3)CC2)c1` [AA-596, (4-benzhydrylpiperazin-1-yl)(5-methylpyridin-3-yl)methanone] are 0.13 µM, 0.36 µM, over 9.61 µM, 2.5 mg/L (≈ 6.73 µM) and over 39.8 µM.
In the same order, the values of `Cc1cncc(C(=O)N2CCN(C(c3ccccc3)c3cccc(Cl)c3)CC2)c1` (centres unmarked) [MKP-1272, 1-[(3-chlorophenyl)(phenyl)methyl]-4-(5-methylpyridine-3-carbonyl)piperazine] are 0.365 µM, 0.246 µM, 0.117 µM, 10 mg/L (≈ 24.6 µM) and 33.6 µM.
For the molecule `Cc1cncc(C(=O)N2CCN(C(c3ccccc3)c3cccc(F)c3)CC2)c1` (centres unmarked) [MKP-1225, 1-[(3-fluorophenyl)(phenyl)methyl]-4-(5-methylpyridine-3-carbonyl)piperazine], the IC50 in data set [1] (Table 2, read-out: Enzyme IC50) stood at 0.038 µM. Also, the values for the EC50 (in data set [2] (setting [4]); with HeLa-ACE2 cells; in the data set on CoV-2 in Vero cells) were 0.21 µM, 0.481 µM and 2.5 mg/L (≈ 6.42 µM), respectively. In data set [3], this molecule returned a CC50 at 24 h of over 39.8 µM.
For `Cc1cncc(C(=O)N2CCN(C3c4ccccc4NC(=O)c4ccccc43)CC2)c1` (centres unmarked) [ZS-355, 11-[4-(5-methylpyridine-3-carbonyl)piperazin-1-yl]-5,11-dihydrobenzo[c][1]benzazepin-6-one] the same measures were 0.053 µM, 0.223 µM, 0.377 µM, 20 mg/L (≈ 48.5 µM) and over 39.8 µM.
As for `Cc1cncc(C(=O)N2CC3CCC(C2)N3C(c2ccccc2)c2ccccc2)c1` [AA-604, (8-benzhydryl-3,8-diazabicyclo[3.2.1]octan-3-yl)(5-methylpyridin-3-yl)methanone], 0.081 µM corresponded to half-maximal inhibition in data set [1] (Enzyme IC50, Table 2) (IC50). For the same molecule, the EC50 in data set [2] (setting [5]) is 0.24 µM; in the data set on HeLa-ACE2 cells, over 9.61 µM; in the data set on CoV-2 in Vero cells it was 5 mg/L (≈ 12.6 µM). Also, the CC50 at 24 h in data set [3] (setting [6]) was over 39.8 µM.
As for `O=C(c1cncc(Br)c1)N1CCN(C2c3ccccc3C=Cc3ccccc32)CC1` [NZ-773, (5-bromo-3-pyridyl)-[4-(2-tricyclo[9.4.0.03,8]pentadeca-1(11),3(8),4,6,9,12,14-heptaenyl)piperazin-1-yl]methanone], the IC50 in data set [1] (Table 2, read-out: Enzyme IC50) turned out to be 0.1 µM. The values for the EC50 (in data set [2] (setting [4]); with HeLa-ACE2 cells; in the data set with CoV-2 in Vero cells) were 0.7 µM, over 9.61 µM and 20 mg/L (≈ 43.4 µM), respectively. The CC50 at 24 h in data set [3] was over 39.8 µM.
For `CC(=O)Nc1cncc(C(=O)N2CCN(C3c4ccccc4CCc4ccccc43)CC2)c1` [ZS-361, N-[5-[4-(2-tricyclo[9.4.0.03,8]pentadeca-1(11),3(8),4,6,12,14-hexaenyl)piperazine-1-carbonyl]-3-pyridyl]acetamide] the same measures were 0.044 µM, 1.18 µM, 4.32 µM, 20 mg/L (≈ 45.4 µM) and 34.2 µM.
In the same order, the values of `Cc1cncc(C(=O)N2CCN(C(c3cccc(F)c3)c3cccc(F)c3)CC2)c1` [MKP-1268, 1-[bis(3-fluorophenyl)methyl]-4-(5-methylpyridine-3-carbonyl)piperazine] are 0.036 µM, 0.111 µM, 0.143 µM, 2.5 mg/L (≈ 6.14 µM) and over 39.8 µM.
In the same order, the values of `O=C(c1cncc(Br)c1)N1CCN(C2c3ccccc3CCc3ccccc32)CC1` [ZS-316, (5-bromo-3-pyridyl)-[4-(2-tricyclo[9.4.0.03,8]pentadeca-1(11),3(8),4,6,12,14-hexaenyl)piperazin-1-yl]methanone] are 0.14 µM, 0.7 µM, over 9.61 µM, 2.5 mg/L (≈ 5.41 µM) and over 39.8 µM.
In the case of `Cc1cncc(C(=O)N2CCN(C(c3ccccc3)c3cccnc3)CC2)c1` (centres unmarked) [MKP-1217, 1-(5-methylpyridine-3-carbonyl)-4-[phenyl(pyridin-3-yl)methyl]piperazine], the IC50 in data set [1] (Table 2, read-out: Enzyme IC50) is 0.32 µM. Moreover, the EC50 stood at 0.475 µM in data set [2] (setting [4]), 1.31 µM with HeLa-ACE2 cells and 10 mg/L (≈ 26.8 µM) with CoV-2 in Vero cells. Besides, the CC50 at 24 h in data set [3] is over 39.8 µM.
Regarding `Cc1cncc(C(=O)N2CCN(C(c3ccccc3)c3ccc(S(C)(=O)=O)cc3)CC2)c1` (centres unmarked) [NZ-799, 1-[(4-methanesulfonylphenyl)(phenyl)methyl]-4-(5-methylpyridine-3-carbonyl)piperazine], the IC50 in data set [1] (Table 2, read-out: Enzyme IC50) worked out at 1.24 µM. Also, the EC50 in data set [2] (setting [4]) worked out at 2.54 µM; in the data set on HeLa-ACE2 cells it was 6.58 µM. Besides, the CC50 at 24 h in data set [3] was over 39.8 µM.
In the same order, the values of `Cc1cncc(C(=O)N2CCN(C(c3ccccc3)c3cc(F)cc(F)c3)CC2)c1` (centres unmarked) [MKP-1280, 1-[(3,5-difluorophenyl)(phenyl)methyl]-4-(5-methylpyridine-3-carbonyl)piperazine] are 0.061 µM, 0.158 µM, 0.261 µM and over 39.8 µM.
For `O=C(c1cncc(Cl)c1)N1CCC(=C(c2ccccc2)c2ccccc2)CC1` [NZ-781, 3-chloro-5-[4-(diphenylmethylidene)piperidine-1-carbonyl]pyridine] the same measures were 0.11 µM, 1.05 µM, over 9.61 µM and 35.8 µM.
For `Cc1cncc(C(=O)N2CCN(C3c4ccccc4C=Cc4ccccc43)CC2)c1` [NZ-784, (5-methyl-3-pyridyl)-[4-(2-tricyclo[9.4.0.03,8]pentadeca-1(11),3(8),4,6,9,12,14-heptaenyl)piperazin-1-yl]methanone] the same measures were 0.088 µM, 0.36 µM, over 9.61 µM and 39.4 µM.
Take `O=C1CC(C(=O)N2CCN(C(c3ccccc3)c3ccccc3)CC2)c2ccccc2N1` (centres unmarked) [ZS-325, 4-(4-benzhydrylpiperazine-1-carbonyl)-3,4-dihydro-1H-quinolin-2-one]: in data set [1] (Table 2, read-out: Enzyme IC50), the IC50 was found to be 1.51 µM. For the same molecule, the results for the EC50 (in data set [2] (setting [4]); in the data set with HeLa-ACE2 cells) were 5.68 µM and over 9.61 µM, respectively. In addition, the CC50 at 24 h in data set [3] was over 39.8 µM.
In the same order, the values of `COc1cccc(C(c2ccccc2)N2CCN(C(=O)c3cncc(F)c3)CC2)c1` (centres unmarked) [MKP-1204, 1-(5-fluoropyridine-3-carbonyl)-4-[(3-methoxyphenyl)(phenyl)methyl] piperazine] are 2.3 µM, 6.66 µM, over 9.61 µM and over 39.8 µM.
For `COc1cncc(C(=O)N2CCN(C(c3ccccc3)c3ccccc3)CC2)c1` [AA-589, (4-benzhydrylpiperazin-1-yl)(5-methoxypyridin-3-yl)methanone] the same measures were 0.48 µM, 1.43 µM, over 9.61 µM and over 39.8 µM.
Take `O=C(c1cncc(Cl)c1)N1CCN(C(c2ccccc2)c2ccccc2)CC1` [AA-591, (4-benzhydrylpiperazin-1-yl)(5-chloropyridin-3-yl)methanone]: the IC50 in data set [1] (Table 2, read-out: Enzyme IC50) was found to be 0.3 µM. The EC50 in data set [2] (setting [4]) was 0.89 µM; with HeLa-ACE2 cells it was over 9.61 µM. The same molecule returned a CC50 at 24 h in data set [3] of over 39.8 µM.
For `Cc1cncc(C(=O)N2CCN(C(c3ccccc3)c3cccc(C(F)(F)F)c3)CC2)c1` (centres unmarked) [MKP-1276, 1-(5-methylpyridine-3-carbonyl)-4-{phenyl[3-(trifluoromethyl)phenyl]methyl} piperazine] the same measures were 0.211 µM, 0.637 µM, 3.41 µM and 22.9 µM.
On to `N#Cc1cncc(C(=O)N2CCN(C(c3ccccc3)c3ccccc3)CC2)c1` [MKP-1230, 5-[4-(diphenylmethyl)piperazine-1-carbonyl]pyridine-3-carbonitrile], for which the IC50 in data set [1] (Table 2, read-out: Enzyme IC50) was 1.3 µM. The EC50 in data set [2] (setting [4]) was 2.8 µM; with HeLa-ACE2 cells it was over 9.61 µM. The CC50 at 24 h in data set [3] was over 39.8 µM.
On to `Cc1cnc(F)c(C(=O)N2CC3CCC(C2)N3C(c2ccccc2)c2ccccc2)c1` [AA-638, (8-benzhydryl-3,8-diazabicyclo[3.2.1]octan-3-yl)(2-fluoro-5-methylpyridin-3-yl)methanone], for which the IC50 in data set [1] (Enzyme IC50, Table 2) worked out at 0.22 µM. Moreover, the EC50 was 0.893 µM in data set [2] (setting [5]) and 0.711 µM in the data set on HeLa-ACE2 cells. In addition, the CC50 at 24 h in data set [3] (setting [6]) is over 39.8 µM.
